“Also recorded” adds a separate entry of the source.

The source of these data is patent US20080194492A1, “Plant Extracts for the Treatment of Incresed Bone Resorption” (priority 2003, published 2008).

The experiment deals with osteoclasts of new-born rats. The experiment in a line: osteoclast pit assay (in vitro resorption activity of osteoclasts on ivory slices). Type of experiment: cell-based, rat. The settings on record: for magnitude of the inhibition when PTH is added compared with without (in words): PTH 10^−8 M added to cultures; for inhibition of osteoclast resorption activity in vitro (in words): osteoclast pit assay, dose not given. As to the method: It will be appreciated that the osteoclast pit assay is a well established in vitro model of bone resorption and readily known to one skilled in the art. Briefly, medium containing a sample to be tested, e.g. 30 mg or less of freeze-dried hydrophilic fraction A per ml, is added to osteoclasts of new-born rats settled on ivory slices. After 24 hours of incubation, the tartrate-resistant acid phosphatase positive multi-nucleated cells, i.e. osteoclasts, are counted. Subsequently, the number of resorption pits is determined. […] For the analysis of statistical significance, the ratios of the treated groups±their respective SEMs are compared to the 95% confidence interval of the SEM of the negative control. […] The inhibitory effect on osteoclasts is assessed by counting the osteoclast resorption pits on the ivory slice. […] To assess in vitro the bone resorbing inhibitory activity, the osteoclast pit assay is used. Medium containing 30 mg or less of freeze-dried fraction per ml is added to osteoclasts of new-born rats settled on ivory slices. After 24 hours of incubation, the tartrate-resistant acid phosphatase positive multi-nucleated cells, i.e. osteoclasts, are counted. Subsequently, the number of resorption pits is determined. […] For the analysis of statistical significance, the ratios of the treated groups±their respective SEMs are compared to the 95% confidence interval of the SEM of the negative control. • a) TLC-Screening and Yields of the RP-MPLC Fractionations. Bioassay (in vitro assessment of osteoclast activity). Osteoclasts were isolated from femora and tibiae of 2-day-old rats and settled for 40 min onto 4×4 mm ivory slices used as the mineralized substrate. After washing off non-adherent cells, individual slices were transferred to 48-well tissue culture plates and incubated for 24 h at 37° C. in a 5% CO2/air atmosphere (14;15) in medium containing 10% fetal bovine serum (FBS) with or without the material to be tested. The concentration of bicarbonate in the MEM Earle's medium was reduced to 15 mM by addition of 12M HCl. In each experiment calcitonin (salmon calcitonin, Novartis Pharma, Basel, Switzerland) was added as positive control at the concentration of 10^-11 M or 10^-12 M. In one experiment parathyroid hormone (PTH; bovine 1-34, Bachem, Bubendorf, Switzerland) was added at the concentration of 10^-8 M, in order to stimulate bone resorption. For each material to be tested 8 slices were used, for the untreated control 2×8 slices were used. After fixation osteoclasts were stained for tartrate-resistant acid-phosphatase (TRAP) (kit 386-A, Sigma, Buchs, Switzerland) and were counted blinded as TRAP positive (TRAP+) multinucleated (more than 2 nuclei) cells (MNC). After removing the cells, the slices were sputter coated with gold and the resorption pits counted blinded in a process described in Vitté, C.; Fleisch, H.: Guenther, H. L. Bisphosphonates induce osteoblasts to secrete an inhibitor of osteoclast-mediated resorption. Endocrinology 1996, 137, 2324-2333. Osteoclastic resorption activity is calculated as the ratio: resorption pits/TRAP+MNC.

For the compound `C/C=C/[S+]([O-])C[C@H](NC(=O)CC[C@H](N)C(=O)O)C(=O)O` (relative stereo) [A1-4C, γ-L-glutamyl-trans-S-1-propenyl-L-cysteine sulfoxide], the “magnitude of the inhibition when PTH is added compared with without (in words)” value is “somewhat smaller” and the “inhibition of osteoclast resorption activity in vitro (in words)” value (shortened to “inhibition … in vitro (in words)”) is on record as “only active fraction”. In addition, the “activity on osteoclast resorption (in words)” value (0.53 mg/mL, i.e. 1.7 mM GPCS) is on record as “active”. Besides, the “Pits/TRAP+ cells ± SEM” value (0.53 mg/mL, neg. control 0.739 ± 0.138) was determined as 0.325 ± 0.108. For the same compound, where the note is “2 mM”, the “inhibition of osteoclast resorption activity (in words)” value is on record as “not significant”. For the same compound, the “resorption activity of osteoclasts (in words)” value (2, 4 and 8 mM, with or without PTH 10^−8 M (FIG. 4)) is “inhibits the resorption activity of osteoclasts dose-dependently”. Also, where the note is “cultures not stimulated with PTH”, the minimal effective dose entry is “around 2 mM”. In addition, the “minimal effective dose, graphical interpolation from FIG. 4” value (cultures stimulated with PTH) was “around 3 mM”. For the setting “listed as Fraction A 1-4C”, the “inhibition … in vitro (in words)” value is listed as “inhibited osteoclast activity nearly as strong as fraction A 1-4”. Besides, the “inhibition … in vitro (in words)” value (listed as Fraction A1-4C) is given as “inhibits osteoclast activity similar to fraction A1-4”. Moreover, the “inhibition … in vitro (in words)” value (listed as fraction A1-4C) is on record as “significantly (p<0.5) inhibit bone resorption; also recorded: inhibiting osteoclast activity”.

In the case of “CT: salmon calcitonin, Novartis Pharma, positive control [reference compound]”, the “magnitude of the inhibition when PTH is added compared with without (in words)” value is given as “somewhat smaller”. The “Pits/TRAP+ cells ± SEM” value (10^−12 M, 24 h, neg. control 0.489 ± 0.128) is reported as 0.061 ± 0.063. Also, the “Pits/TRAP+ cells ± SEM” value (10^−12 M, neg. control 0.739 ± 0.138) worked out at 0.116 ± 0.030.
